{"source": "ChEMBL document CHEMBL1201862", "about": "“PubChem BioAssay data set” (2004)", "key": {"[1]": {"biological_target": "T1, Sentrin-specific protease 8 (Homo sapiens, UniProt Q96LD8)", "T1 sequence (Q96LD8 whole entry)": "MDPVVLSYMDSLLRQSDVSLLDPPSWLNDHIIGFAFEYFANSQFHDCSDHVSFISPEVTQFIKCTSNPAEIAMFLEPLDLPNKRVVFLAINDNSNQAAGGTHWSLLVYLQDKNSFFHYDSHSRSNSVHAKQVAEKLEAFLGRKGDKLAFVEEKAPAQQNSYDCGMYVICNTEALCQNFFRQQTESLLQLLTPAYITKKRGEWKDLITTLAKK", "format": "functional"}, "[2]": {"biological_target": "T2, Replicative DNA helicase DnaB (Mycobacterium tuberculosis, UniProt P9WMR3)", "T2 sequence (P9WMR3 whole entry)": "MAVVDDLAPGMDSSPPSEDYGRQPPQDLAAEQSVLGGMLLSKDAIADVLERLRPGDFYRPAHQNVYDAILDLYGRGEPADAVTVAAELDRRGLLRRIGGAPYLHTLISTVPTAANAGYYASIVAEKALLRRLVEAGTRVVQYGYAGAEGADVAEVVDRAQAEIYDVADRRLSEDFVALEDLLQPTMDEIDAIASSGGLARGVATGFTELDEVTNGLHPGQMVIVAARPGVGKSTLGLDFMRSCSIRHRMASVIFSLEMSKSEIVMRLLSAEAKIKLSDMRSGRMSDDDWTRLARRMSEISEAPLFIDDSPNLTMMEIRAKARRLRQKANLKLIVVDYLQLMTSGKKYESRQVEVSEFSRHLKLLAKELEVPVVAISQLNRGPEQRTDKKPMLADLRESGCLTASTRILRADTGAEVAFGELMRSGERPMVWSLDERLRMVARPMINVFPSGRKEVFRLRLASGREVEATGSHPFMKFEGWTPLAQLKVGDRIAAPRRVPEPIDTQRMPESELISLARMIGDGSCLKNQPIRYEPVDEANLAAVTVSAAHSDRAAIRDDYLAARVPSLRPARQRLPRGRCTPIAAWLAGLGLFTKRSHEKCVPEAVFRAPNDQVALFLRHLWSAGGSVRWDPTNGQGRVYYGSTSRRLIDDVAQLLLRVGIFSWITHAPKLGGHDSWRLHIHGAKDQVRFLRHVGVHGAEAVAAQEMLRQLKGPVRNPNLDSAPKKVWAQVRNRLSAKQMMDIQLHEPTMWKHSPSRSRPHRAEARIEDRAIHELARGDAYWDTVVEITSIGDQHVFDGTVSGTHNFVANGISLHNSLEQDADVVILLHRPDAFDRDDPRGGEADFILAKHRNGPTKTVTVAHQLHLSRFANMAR", "assay": "DnaB intein splicing inhibitors, dose response, biochemical, cell-free fluorescence (AID 449749)", "format": "functional"}, "[3]": {"assay": "A375 melanoma cell cytotoxicity, dose response, counter-screen for MITF inhibitor project, CellTiter-Glo luminescence, dry powder, set 2 (AID 624489);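 note: actives are compounds lowering A375 viability meaning general cytotoxicity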", "format": "functional, cell-based", "details": "A-375"}, "[4]": {"biological_target": "Intestinal-type alkaline phosphatase (Mus musculus, UniProt P24822)", "sequence (P24822 whole entry)": "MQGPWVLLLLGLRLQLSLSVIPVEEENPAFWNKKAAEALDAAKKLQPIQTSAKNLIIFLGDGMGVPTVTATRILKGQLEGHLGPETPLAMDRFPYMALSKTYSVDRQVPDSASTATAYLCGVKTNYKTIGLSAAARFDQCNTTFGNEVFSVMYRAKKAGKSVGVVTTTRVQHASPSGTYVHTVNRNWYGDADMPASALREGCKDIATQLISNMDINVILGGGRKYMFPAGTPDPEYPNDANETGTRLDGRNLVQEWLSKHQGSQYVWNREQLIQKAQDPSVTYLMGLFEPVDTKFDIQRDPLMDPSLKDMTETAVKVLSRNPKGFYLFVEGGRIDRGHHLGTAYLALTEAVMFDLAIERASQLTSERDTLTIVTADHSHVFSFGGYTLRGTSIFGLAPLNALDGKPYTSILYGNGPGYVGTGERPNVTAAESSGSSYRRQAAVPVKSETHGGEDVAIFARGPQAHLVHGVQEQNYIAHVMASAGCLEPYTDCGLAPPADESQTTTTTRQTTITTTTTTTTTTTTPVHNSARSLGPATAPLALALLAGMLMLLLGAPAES", "assay": "mouse intestinal alkaline phosphatase activators, dose response, biochemical, luminescence, uHTS hits (AID 488783)", "format": "functional"}, "[5]": {"biological_target": "T3, Alkaline phosphatase, tissue-nonspecific isozyme (Homo sapiens, UniProt P05186)", "T3 sequence (P05186 whole entry)": "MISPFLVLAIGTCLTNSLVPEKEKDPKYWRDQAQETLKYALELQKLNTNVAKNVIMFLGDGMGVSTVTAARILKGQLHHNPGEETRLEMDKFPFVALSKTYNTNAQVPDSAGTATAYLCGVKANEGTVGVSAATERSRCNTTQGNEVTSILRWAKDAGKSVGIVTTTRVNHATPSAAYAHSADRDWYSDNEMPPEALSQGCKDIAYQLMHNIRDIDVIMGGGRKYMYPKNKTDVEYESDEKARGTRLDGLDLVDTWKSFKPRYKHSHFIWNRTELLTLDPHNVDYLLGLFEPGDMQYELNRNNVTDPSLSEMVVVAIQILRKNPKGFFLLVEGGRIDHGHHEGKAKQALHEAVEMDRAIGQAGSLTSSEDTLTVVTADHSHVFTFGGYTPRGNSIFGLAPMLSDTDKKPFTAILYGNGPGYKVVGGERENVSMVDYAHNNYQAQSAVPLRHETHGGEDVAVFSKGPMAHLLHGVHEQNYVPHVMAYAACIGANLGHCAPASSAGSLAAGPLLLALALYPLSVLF", "assay": "TNAP enzyme activators, dose response, selectivity assay for mouse IAP activator project, biochemical, TNAP isozyme, mouse IAP uHTS hits (AID 488880)", "format": "functional"}, "Protein Tat": {"biological_target": "Protein Tat (Human immunodeficiency virus type 1 group M subtype B (isolate HXB2)(HIV-1), UniProt P04608)", "format": "functional"}, "[6]": {"assay": "THP-1 cell cytotoxicity, dose response, cytotoxicity control for Vif-APOBEC3G degradation inhibitor project, THP-1 cells (AID 1117359)", "format": "functional", "details": "Human immunodeficiency virus 1, THP-1"}, "[7]": {"biological_target": "Dual specificity protein kinase CLK2 (Homo sapiens, UniProt P49760)", "sequence (P49760 whole entry)": "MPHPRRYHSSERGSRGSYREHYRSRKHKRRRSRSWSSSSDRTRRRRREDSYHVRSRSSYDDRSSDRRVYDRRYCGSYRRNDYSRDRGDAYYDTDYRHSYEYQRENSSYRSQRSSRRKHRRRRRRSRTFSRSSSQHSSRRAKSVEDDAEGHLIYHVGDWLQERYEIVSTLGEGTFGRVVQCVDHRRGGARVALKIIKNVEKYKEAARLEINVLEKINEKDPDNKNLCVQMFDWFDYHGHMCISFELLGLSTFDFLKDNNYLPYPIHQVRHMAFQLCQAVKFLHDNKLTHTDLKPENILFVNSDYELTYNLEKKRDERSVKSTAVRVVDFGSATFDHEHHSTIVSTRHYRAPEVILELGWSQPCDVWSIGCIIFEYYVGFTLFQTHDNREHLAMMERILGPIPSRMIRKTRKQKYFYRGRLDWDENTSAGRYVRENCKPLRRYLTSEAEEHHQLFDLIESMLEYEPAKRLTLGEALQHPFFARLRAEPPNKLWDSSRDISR", "format": "functional"}, "[8]": {"biological_target": "Proto-oncogene tyrosine-protein kinase receptor Ret (Homo sapiens, UniProt P07949)", "sequence (P07949 whole entry)": "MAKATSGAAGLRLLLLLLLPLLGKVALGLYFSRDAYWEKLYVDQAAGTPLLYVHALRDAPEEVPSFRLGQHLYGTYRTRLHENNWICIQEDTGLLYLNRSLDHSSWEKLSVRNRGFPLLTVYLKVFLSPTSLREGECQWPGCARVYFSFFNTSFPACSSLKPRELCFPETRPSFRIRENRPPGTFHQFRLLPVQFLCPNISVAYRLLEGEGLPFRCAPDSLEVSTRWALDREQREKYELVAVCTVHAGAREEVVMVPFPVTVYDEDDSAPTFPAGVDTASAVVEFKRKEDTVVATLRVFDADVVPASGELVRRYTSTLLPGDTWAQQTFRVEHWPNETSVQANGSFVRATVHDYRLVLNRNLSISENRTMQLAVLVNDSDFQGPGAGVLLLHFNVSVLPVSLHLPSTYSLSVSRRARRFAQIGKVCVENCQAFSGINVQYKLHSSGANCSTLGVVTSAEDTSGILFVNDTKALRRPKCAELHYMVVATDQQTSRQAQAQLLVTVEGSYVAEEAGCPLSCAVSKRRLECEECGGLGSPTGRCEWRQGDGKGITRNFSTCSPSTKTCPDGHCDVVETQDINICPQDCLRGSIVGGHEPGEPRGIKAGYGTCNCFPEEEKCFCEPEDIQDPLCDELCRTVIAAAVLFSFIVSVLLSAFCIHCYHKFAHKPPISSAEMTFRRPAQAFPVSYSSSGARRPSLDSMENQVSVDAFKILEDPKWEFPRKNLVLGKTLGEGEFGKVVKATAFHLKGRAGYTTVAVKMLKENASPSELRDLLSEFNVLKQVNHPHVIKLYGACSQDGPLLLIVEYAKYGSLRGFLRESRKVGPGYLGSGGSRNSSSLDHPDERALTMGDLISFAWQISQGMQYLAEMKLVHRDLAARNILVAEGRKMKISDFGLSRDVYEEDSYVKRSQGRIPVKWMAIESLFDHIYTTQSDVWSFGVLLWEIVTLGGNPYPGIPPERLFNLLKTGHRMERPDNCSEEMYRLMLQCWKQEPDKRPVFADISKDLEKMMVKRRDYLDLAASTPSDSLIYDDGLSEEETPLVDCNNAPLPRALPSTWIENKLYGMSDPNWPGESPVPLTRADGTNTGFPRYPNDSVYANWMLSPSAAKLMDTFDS", "format": "functional"}, "[9]": {"biological_target": "Serine/threonine-protein kinase Chk2 (Homo sapiens, UniProt O96017)", "format": "functional"}, "[10]": {"biological_target": "MAP kinase-activated protein kinase 2 (Homo sapiens, UniProt P49137)", "sequence (P49137 whole entry)": "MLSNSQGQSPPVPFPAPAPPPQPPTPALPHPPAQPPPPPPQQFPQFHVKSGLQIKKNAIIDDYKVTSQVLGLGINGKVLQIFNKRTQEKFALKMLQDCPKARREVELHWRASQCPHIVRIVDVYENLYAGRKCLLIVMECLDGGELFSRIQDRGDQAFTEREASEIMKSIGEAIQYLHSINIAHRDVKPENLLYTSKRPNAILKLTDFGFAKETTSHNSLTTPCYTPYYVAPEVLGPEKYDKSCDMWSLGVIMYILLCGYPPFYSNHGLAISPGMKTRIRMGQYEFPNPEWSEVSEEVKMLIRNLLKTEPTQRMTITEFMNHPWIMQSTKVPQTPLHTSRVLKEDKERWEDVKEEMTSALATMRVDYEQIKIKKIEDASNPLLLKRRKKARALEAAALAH", "format": "functional"}, "[11]": {"biological_target": "Serine/threonine-protein kinase PAK 1 (Homo sapiens, UniProt Q13153)", "sequence (Q13153 whole entry)": "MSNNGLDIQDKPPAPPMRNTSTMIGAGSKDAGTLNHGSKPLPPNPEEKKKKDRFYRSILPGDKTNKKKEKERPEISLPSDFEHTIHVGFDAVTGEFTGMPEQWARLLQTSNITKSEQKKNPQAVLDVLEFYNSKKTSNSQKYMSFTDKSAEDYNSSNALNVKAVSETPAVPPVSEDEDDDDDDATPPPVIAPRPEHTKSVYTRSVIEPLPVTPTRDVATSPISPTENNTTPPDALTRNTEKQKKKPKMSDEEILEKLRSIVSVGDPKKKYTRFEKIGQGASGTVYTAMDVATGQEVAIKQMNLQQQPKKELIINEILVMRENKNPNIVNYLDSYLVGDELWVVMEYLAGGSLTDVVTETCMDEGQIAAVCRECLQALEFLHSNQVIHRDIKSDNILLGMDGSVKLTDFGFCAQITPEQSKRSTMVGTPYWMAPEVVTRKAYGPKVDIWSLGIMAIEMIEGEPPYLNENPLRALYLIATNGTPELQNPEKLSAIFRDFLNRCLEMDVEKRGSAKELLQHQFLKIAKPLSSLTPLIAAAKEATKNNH", "format": "functional"}, "[12]": {"biological_target": "Serine/threonine-protein kinase pim-3 (Homo sapiens, UniProt Q86V86)", "format": "functional"}, "[13]": {"biological_target": "Serine/threonine-protein kinase Chk1 (Homo sapiens, UniProt O14757)", "sequence (O14757 whole entry)": "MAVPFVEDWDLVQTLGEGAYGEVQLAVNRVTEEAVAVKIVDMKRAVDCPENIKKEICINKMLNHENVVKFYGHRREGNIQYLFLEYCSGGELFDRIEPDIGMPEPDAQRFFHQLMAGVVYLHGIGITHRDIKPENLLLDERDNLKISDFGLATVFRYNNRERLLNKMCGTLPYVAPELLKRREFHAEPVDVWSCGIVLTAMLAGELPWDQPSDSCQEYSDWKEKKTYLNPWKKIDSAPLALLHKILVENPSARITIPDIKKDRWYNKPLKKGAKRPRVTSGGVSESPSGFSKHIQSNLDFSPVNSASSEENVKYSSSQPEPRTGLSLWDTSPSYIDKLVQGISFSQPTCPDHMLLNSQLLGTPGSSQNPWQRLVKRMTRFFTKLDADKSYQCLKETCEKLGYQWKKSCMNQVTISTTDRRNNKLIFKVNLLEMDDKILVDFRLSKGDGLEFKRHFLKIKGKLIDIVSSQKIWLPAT", "format": "functional"}, "[14]": {"biological_target": "Rho-associated protein kinase 1 (Homo sapiens, UniProt Q13464)", "format": "functional"}, "[15]": {"biological_target": "Cyclin-dependent kinase 1 (Homo sapiens, UniProt P06493)", "sequence (P06493 whole entry)": "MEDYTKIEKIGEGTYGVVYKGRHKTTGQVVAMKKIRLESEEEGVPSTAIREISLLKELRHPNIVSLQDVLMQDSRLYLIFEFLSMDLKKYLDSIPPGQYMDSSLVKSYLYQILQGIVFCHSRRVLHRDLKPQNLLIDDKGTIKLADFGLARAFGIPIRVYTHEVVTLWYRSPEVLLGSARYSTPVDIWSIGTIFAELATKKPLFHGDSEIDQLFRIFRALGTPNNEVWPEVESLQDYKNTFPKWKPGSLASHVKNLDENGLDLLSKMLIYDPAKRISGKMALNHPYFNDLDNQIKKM", "format": "functional"}, "[16]": {"biological_target": "STE20-like serine/threonine-protein kinase (Homo sapiens, UniProt Q9H2G2)", "format": "functional"}, "[17]": {"biological_target": "Cyclin-dependent kinase 9 (Homo sapiens, UniProt P50750)", "sequence (P50750 whole entry)": "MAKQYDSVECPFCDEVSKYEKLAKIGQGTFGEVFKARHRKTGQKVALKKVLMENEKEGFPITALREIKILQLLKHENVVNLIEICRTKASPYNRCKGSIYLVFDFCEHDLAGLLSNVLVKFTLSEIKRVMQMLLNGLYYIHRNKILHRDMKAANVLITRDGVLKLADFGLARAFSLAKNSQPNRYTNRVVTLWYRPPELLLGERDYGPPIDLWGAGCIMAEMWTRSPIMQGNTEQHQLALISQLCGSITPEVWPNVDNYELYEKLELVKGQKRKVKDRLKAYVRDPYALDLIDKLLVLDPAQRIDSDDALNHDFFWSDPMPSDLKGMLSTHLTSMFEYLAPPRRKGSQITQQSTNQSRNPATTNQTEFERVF", "format": "functional"}, "[18]": {"biological_target": "Lymphokine-activated killer T-cell-originated protein kinase (Homo sapiens, UniProt Q96KB5)", "sequence (Q96KB5 whole entry)": "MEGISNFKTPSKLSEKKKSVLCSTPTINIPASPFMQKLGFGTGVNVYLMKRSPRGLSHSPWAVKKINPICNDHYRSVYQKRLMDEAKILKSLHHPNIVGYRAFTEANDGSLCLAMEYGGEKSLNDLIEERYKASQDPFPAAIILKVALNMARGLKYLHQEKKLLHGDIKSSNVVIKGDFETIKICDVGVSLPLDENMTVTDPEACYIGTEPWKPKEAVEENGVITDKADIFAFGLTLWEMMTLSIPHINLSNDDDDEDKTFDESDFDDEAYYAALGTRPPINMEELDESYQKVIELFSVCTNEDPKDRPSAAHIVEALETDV", "format": "functional"}}, "note": "Active and inactive are the calls of the source."}
{"compound": "C=CCNC1=C(Cl)C(=O)c2ccccc2C1=O", "values": [{"measurement": "IC50", "setting": "[1]", "value": "10.1 µM (active)"}, {"measurement": "AC50", "setting": "[2]", "value": "4.75 µM (active)"}, {"measurement": "AC50", "setting": "[3]", "value": "> 70 µM (inactive)"}]}
{"compound": "CS(=O)(=O)c1ccc2c(c1)SC1=NC(=O)/C(=C/c3ccc(O)c(O)c3)C(=N)N12", "values": [{"measurement": "EC50", "setting": "[4]", "value": "6.35 µM (active)"}, {"measurement": "EC50", "setting": "[5]", "value": "77.5 µM (active)"}]}
{"compound": "CCOC(=O)C(C(=O)OCC)c1cc(Br)c2noc3c2c1C(=O)c1ccccc1-3", "values": [{"measurement": "AC50", "setting": "[2]", "value": "27.6 µM (active)"}, {"measurement": "IC50", "setting": "Protein Tat", "value": "6.44 µM (inconclusive)"}, {"measurement": "CC50", "setting": "[6]", "value": "19.2 µM (active)"}]}
{"compound": "CN(C)c1ccc(-c2nnc(-c3cccs3)o2)cc1", "values": [{"measurement": "IC50", "setting": "[1]", "value": "> 100 µM (inactive)"}]}
{"compound": "COc1ccc(C(=O)Nc2n[nH]c3ccc(-c4cn(Cc5ccccc5)nn4)cc23)cc1OC", "values": [{"measurement": "Ki", "setting": "[7]", "value": "0.0631 µM (active)"}, {"measurement": "Ki", "setting": "[8]", "value": "0.126 µM (active)"}, {"measurement": "Ki", "setting": "[9]", "value": "0.0501 µM (active)"}, {"measurement": "Ki", "setting": "[10]", "value": "2 µM (active)"}, {"measurement": "Ki", "setting": "[11]", "value": "> 10 µM (inactive)"}, {"measurement": "Ki", "setting": "[12]", "value": "1.26 µM (active)"}, {"measurement": "Ki", "setting": "[13]", "value": "3.98 µM (active)"}, {"measurement": "Ki", "setting": "[14]", "value": "1.26 µM (active)"}, {"measurement": "Ki", "setting": "[15]", "value": "0.0398 µM (active)"}, {"measurement": "Ki", "setting": "[16]", "value": "2 µM (active)"}, {"measurement": "Ki", "setting": "[17]", "value": "0.501 µM (active)"}, {"measurement": "Ki", "setting": "[18]", "value": "> 10 µM (inactive)"}]}
